The values below come from patent EP0285883A2, “Bactobolin as a prophylactic or therapeutic agent for autoimmune diseases, and as an immuno-suppressive agent” (ZAIDAN HOJIN BISEIBUTSU KAGAKU KENKYU KAI, priority 1987, dated 1988).

For data set [1], the system named is EAE. The data set is described as follows: Test 2: EAE in MBP/CFA-immunized rats, treatment during the effector phase (Day 8-14). Format: in vivo. Particulars: for Histologic score (±SD): treatment during the effector phase, evaluated for 15 days after the immunization. As to the method: Bactobolin was administered intraperitoneally to the MBP/CFA-immunized animals (rats) during a period (Day 8-14), which was considered to correspond primarily to the effector phase of EAE, and during this period the effects of bactobolin was estimated.

Data set [2] relates to EAE. In words: Test 3: EAE, treatment started after onset of clinical signs. Format: in vivo. Particulars: 0.5 mg/Kg i.p., started on the day of the first clinical sign. As to the method:
A study was conducted to determine whether the intraperitoneal administration of bactobolin made after the incidence of EAE was therapeutically effective, or not.

For another data set, the system named is mouse. Particulars: in mouse, intravenous; cited from earlier work.
The test system of the next data set is Passively Induced EAE. The data set is described as follows: Test 4: passively induced EAE (transfer of precultured spleen cells). Format: in vivo, rats. The settings on record: 0.5 mg/Kg, sacrificed Day 9 P.I.
Another data set concerns lymph node cells. In words: Test 5: lymphocyte proliferative responses of lymph node cells from treated rats (tritiated thymidine uptake). The data set is classed as in vivo. The procedure: Using lymph node cells which were separately collected separately from control rats and from the bactobolin-intraperitoneally administered rats on Day 11 (the 11th day after the sensitization), the lymphocyte proliferative responses to specific antigen, as well as the response to Con A were assessed.
Note 1:- Animals belonging to Bactobolin-administered group were daily intraperitoneally with 0.5mg/kg of bactobolin from Day 1 P.I. to Day 8 P.I., and the control animals were treated with PBS. Note 2:-Lymph node cells were obtained from control and bactobolin-treated rats 11 days after the sensitization. These lymphoid cells were cultured with GPBP (10 µg/mℓ), PPD (10 µg/mℓ) or Con A (2 µg/mℓ) for 3 days. The proliferative responses were assessed by measuring the uptake of tritiated thymidine.
In the above, CPM means the measured number of count per minute; MBP means myelin basic protein; PPD means a purified protein derivative; and Con A means concanavalin A.

In data set [3] the test system is Acute Experimental Autoimmune Encephalomyelitis (EAE) of Rat. In words: Test 1: acute EAE of rat, treatment during the induction phase. The settings on record: for Incidence of EAE Number of animals affected/Number of animals tested: 0.5 mg/Kg intraperitoneal daily, observed for 16 days after immunization; for Histologic score (±SD): treatment during the inductive phase, mean of six separate sections incl. spinal cord and brain, ratings zero to 4. The data set is classed as in vivo, rats. The procedure:
To animals (rats) as sensitized with myelin basic protein/complete Freund adjuvant (hereinafter affreviated as MBP/CFA) for immunization, 0.5 mg/kg of bactobolin was administered by intraperitoneal injection daily from the next day (Day 1) of the immunization to Day 8. This administration period corresponds approximately to the induction phase of EAE.

Molecules are shown by their SMILES. “And” between values parts separate entries of the source, which are not always exact repeats. Equal entries are not always repeated.

`C[C@H](N)C(=O)N[C@@H]1[C@H]2C(=C(O)C[C@@H](O)[C@@H]2O)C(=O)O[C@]1(C)C(Cl)Cl` [Bactobolin, bactobolin]: the “Paralysis score (±SD)” value in the data set on EAE [1] (0.5 mg/Kg i.p., effector phase, Day 8-14, sacrificed on Day 15 P.I.) is 0 ± 0; in the data set with EAE [2], 4.6 ± 1.2; with EAE [2] (listed as bactobolin), “suppressed significantly”; in the data set on Passively Induced EAE (recipients administered Day 1 to Day 8 P.I.), 0 ± 0; in data set [3] (0.5 mg/Kg i.p. daily, Day 1-8 (induction phase), sum of the scores daily estimated during the disease), 0 ± 0. The “Incidence of EAE (number of animals affected number of animals tested)” value with EAE [1] (0.5 mg/Kg i.p., effector phase, Day 8-14 after the immunization) was “suppressed the incidence of EAE markedly and 0/5”. Further, the “Histologic score (±SD)” value with EAE [1] is listed as 0.1 ± 0.1; in the data set on EAE [1] (listed as bactobolin), “suppressed histologic lesion markedly”; in data set [3], 0.5 ± 0.6; in data set [3] (listed as bactobolin) it was “suppresses histologic EAE markedly”. In addition, the “Whole duration of illness (days ± SD)” value with EAE [2] is on record as 4.4 ± 1.0 days; with EAE [2] (listed as bactobolin), “no substantial influences were observed”. In the data set on mouse, the “acute LD50 toxicity” value is 6.25 to 12.5 mg/kg. Also, in the data set with Passively Induced EAE (recipients of 2x10^7 precultured spleen cells, administered Day 1 to Day 8 P.I.), the “Incidence of EAE (days ± SD)” value was “suppressed the incidence of passively induced EAE markedly and 0/2”. Besides, the “CPM ± SD (uptake of tritiated thymidine)” value in the data set with lymph node cells (Con A (2 µg/mℓ), 0.5mg/kg i.p. daily Day 1-8 P.I., cells taken 11 days after sensitization, cultured 3 days) is reported as “suppressed”. Also, the “lymphocyte proliferative responses to specific antigen” value in the data set on lymph node cells (lymph node cells of the bactobolin-administered group, Day 11, result in words) is listed as “No lymphocyte proliferative responses to specific antigen were observed”. Besides, the “Incidence of EAE Number of animals affected/Number of animals tested” value in data set [3] (Day 1-8 (induction phase)) is given as 0/5; in data set [3] (Day 1-8 (induction phase), listed as bactobolin) it was “none of the rats developed EAE”.
